Data as given in PubChem BioAssay (NCI).
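Cells were grown in 96-well plates and exposed to each compound for 48 hours at five concentrations; endpoints were interpolated linearly between bracketing concentrations, or set to the highest concentration if not reached. The concentration for full growth arrest is given as TGI.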

Assays:
Experiment in all cases: DTP human tumour cell line panel, 48 h
[1] = system: BT-549 breast
[2] = system: SNB-19 CNS
[3] = system: HOP-92 NSCLC
[4] = system: UO-31 renal
[5] = system: KM12 colon
[6] = system: 786-0 renal
[7] = system: T-47D breast
[8] = system: SK-MEL-2 melanoma
[9] = system: ACHN renal
[10] = system: A549 NSCLC
[11] = system: NCI-H460 lung
[12] = system: SK-OV-3 ovarian
[13] = system: NCI-H23 lung
[14] = system: SNB-75 CNS
[15] = system: MDA-N
[16] = system: OVCAR-5 ovarian
[17] = system: MDA-MB-231 breast
[18] = system: UACC-62 melanoma
[19] = system: MCF7 breast
[20] = system: DU-145 prostate
[21] = system: OVCAR-8 ovarian
[22] = system: IGROV1 ovarian
[23] = system: HL-60(TB) leukemia
[24] = system: LOX IMVI melanoma
[25] = system: CCRF-CEM leukemia
[26] = system: SF-268 CNS
[27] = system: A498 renal
[28] = system: SK-MEL-28 melanoma
[29] = system: HOP-62 NSCLC
[30] = system: OVCAR-4 ovarian
[31] = system: M14 melanoma
[32] = system: HCT-15 colon
[33] = system: NCI-H226 lung
[34] = system: COLO 205 colon
[35] = system: NCI/ADR-RES ovarian
[36] = system: SN12C renal
[37] = system: SW-620 colon
[38] = system: EKVX NSCLC
[39] = system: RPMI-8226 leukemia
[40] = system: MOLT-4 leukemia
[41] = system: NCI-H522 lung
[42] = system: TK-10 renal
[43] = system: U251 CNS
[44] = system: SR leukemia
[45] = system: HCC-2998 colon
[46] = system: PC-3 prostate
[47] = system: SF-295 CNS
[48] = system: OVCAR-3 ovarian
[49] = system: HS 578T breast
[50] = system: UACC-257 melanoma
[51] = system: SK-MEL-5 melanoma
[52] = system: SF-539 CNS
[53] = system: MDA-MB-435
[54] = system: K-562 leukemia
[55] = system: CAKI-1 renal
[56] = system: HCT-116 colon
[57] = system: RXF 393 renal
[58] = system: MALME-3M melanoma
[59] = system: HT29 colon

Measured: TGI

Cc1coc2c1CC1OC1(C)CCC1OC1(C)C2 (stereo unspecified)
not listed: [57] | [58] | [59]
> 100 µM: all other assays above

N#Cc1c(N)c2c(c(-c3ccccc3)c1-c1ccccc1)C(=O)N(Nc1ccccc1)C2=O
78.5 µM: [51]
56.4 µM: [5]
78.1 µM: [48]
78.3 µM: [4]
43.7 µM: [56]
65.2 µM: [57]
71 µM: [7]
86.8 µM: [24]
56.7 µM: [34]
87.4 µM: [31]
not listed: [12] | [13] | [29] | [59]
> 100 µM: all other assays above

CC(C)C(C/C=C1/CC(CO)(COC(=O)C(C)(C)C)OC1=O)C(C)C (stereo unspecified)
24.4 µM: [31]
11 µM: [49]
27.3 µM: [5]
15.2 µM: [45]
23.4 µM: [20]
30.5 µM: [57]
16.2 µM: [23]
17.3 µM: [4]
30.7 µM: [12]
23.3 µM: [7] | [36]
17.1 µM: [17]
20.7 µM: [51]
19.6 µM: [15]
35.6 µM: [19] | [40]
18 µM: [42]
19 µM: [37]
15.3 µM: [10]
21.1 µM: [14] | [46]
26.1 µM: [2]
23.5 µM: [26]
29.9 µM: [8] | [48]
19.2 µM: [58]
23.8 µM: [13]
26.9 µM: [1]
15.4 µM: [52]
25.7 µM: [11]
36.6 µM: [35]
28.4 µM: [24]
24.3 µM: [16]
18.8 µM: [29]
30.6 µM: [28]
34.6 µM: [32]
> 50.5 µM: [44]
36.4 µM: [21]
24.9 µM: [54]
21.8 µM: [27]
18.2 µM: [6]
17.9 µM: [47] | [55]
25.3 µM: [3]
36.5 µM: [25]
26 µM: [18]
23 µM: [38]
27.5 µM: [43] | [56]
32.3 µM: [59]
27.6 µM: [41]
5.32 µM: [34]
21.5 µM: [53]
22.7 µM: [33]
32.7 µM: [50]
21 µM: [9]
31.5 µM: [22] | [30]

O=C(/C=c1\oc(=O)/c(=C/C(=O)c2ccc(Cl)cc2)oc1=O)c1ccc(Cl)cc1
72.9 µM: [41]
91 µM: [1]
56 µM: [40]
not listed: [14] | [37]
> 100 µM: all other assays above
